Experimental data as given in ChEMBL document CHEMBL1201862, “PubChem BioAssay data set” (2004).
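All cell lines were grown in 96-well plates and treated with compound for 48 hours. GI50: concentration for 50% inhibition of growth.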 Activity calls are given as the source filed them. Rule as the data show it: active = GI50 up to about 1.1 µM and inactive = higher.

What was measured:
Assay in all cases: NCI-60 cell line screen, 48 h
786-0 = tested on: 786-0
BT-549 = tested on: BT-549
CAKI-1 = tested on: CAKI-1
DU-145 = tested on: DU-145
HCC 2998 = tested on: HCC 2998
HCT-15 = tested on: HCT-15
HOP-92 = tested on: HOP-92
K562 = tested on: K562
MCF7 = tested on: MCF7
MDA-MB-231 = tested on: MDA-MB-231
NCI/ADR-RES = tested on: NCI/ADR-RES
OVCAR-3 = tested on: OVCAR-3
OVCAR-5 = tested on: OVCAR-5
PC-3 = tested on: PC-3
SF-268 = tested on: SF-268
SF-539 = tested on: SF-539
T47D = tested on: T47D
UO-31 = tested on: UO-31
SNB-75 = tested on: SNB-75
SW-620 = tested on: SW-620

Row | Structure (SMILES) | GI50 (786-0) | GI50 (BT-549) | GI50 (CAKI-1) | GI50 (DU-145) | GI50 (HCC 2998) | GI50 (HCT-15) | GI50 (HOP-92) | GI50 (K562) | GI50 (MCF7) | GI50 (MDA-MB-231) | GI50 (NCI/ADR-RES) | GI50 (OVCAR-3) | GI50 (OVCAR-5) | GI50 (PC-3) | GI50 (SF-268) | GI50 (SF-539) | GI50 (T47D) | GI50 (UO-31) | GI50 (SNB-75) | GI50 (SW-620)
1 | CC1=NN(c2nc(N)nc(-c3cc4ccccc4oc3=N)n2)C(C)(C)C1 | 15.3 µM (inactive) | 26.7 µM (inactive) | 17.3 µM (inactive) | 20.9 µM (inactive) | 15 µM (inactive) | 16.1 µM | 22.9 µM (inactive) | 18.9 µM (inactive) | 27.7 µM (inactive) | 20.1 µM (inactive) | 22 µM (inactive) | 17.7 µM (inactive) | 24.9 µM (inactive) | 17.1 µM (inactive) | 19.1 µM (inactive) | 19.5 µM (inactive) | 16.1 µM (inactive) | 19.1 µM (inactive) | – | –
2 | Cc1ccc(S(=O)(=O)n2ccc(-c3ccc4ccn(S(=O)(=O)c5ccc(C)cc5)c4c3)c2)cc1 | > 100 µM (inactive) | > 100 µM (inactive) | > 100 µM (inactive) | > 100 µM (inactive) | > 100 µM (inactive) | > 100 µM | – | > 100 µM (inactive) | > 100 µM (inactive) | > 100 µM (inactive) | > 100 µM (inactive) | > 100 µM (inactive) | > 100 µM (inactive) | > 100 µM (inactive) | > 100 µM (inactive) | > 100 µM (inactive) | > 100 µM (inactive) | > 100 µM (inactive) | 94.2 µM (inactive) | > 100 µM (inactive)
3 | CC1=NN(C(=O)c2ccccc2O)C(c2ccccc2Cl)C1C(=O)Nc1ccccc1 (stereo not drawn) | < 0.0457 µM (active) | < 0.0256 µM (active) | 0.159 µM (active) | < 0.0291 µM (active) | 2.84 µM (inactive) | 0.0303 µM | > 100 µM (inactive) | < 0.0235 µM (active) | 0.0387 µM (active) | 0.647 µM (active) | 0.0458 µM (active) | 0.143 µM (active) | 0.458 µM (active) | 1.75 µM (inactive) | < 0.01 µM (active) | < 0.0298 µM (active) | 0.0435 µM (active) | < 0.0226 µM (active) | – | 0.388 µM (active)
4 | [N-]=[N+]=Nc1c(Cc2ccccc2)c(=O)oc2ccccc12 | 40.6 µM (inactive) | 24.5 µM (inactive) | 23.8 µM (inactive) | 51.9 µM (inactive) | 26 µM (inactive) | 31 µM | – | 18.6 µM (inactive) | 32.6 µM (inactive) | 39.3 µM (inactive) | 27.6 µM (inactive) | 49.5 µM (inactive) | 61.9 µM (inactive) | 22.9 µM (inactive) | 25.9 µM (inactive) | > 10 µM (inactive) | 56.8 µM (inactive) | 36.1 µM (inactive) | 28.6 µM (inactive) | 14.8 µM (inactive)
5 | COC(=O)c1c(C)[nH]c2c1C(=O)C(=O)c1nc(C)c(C)nc1-2 | 10.4 µM (inactive) | 10.9 µM (inactive) | 6.75 µM (inactive) | 6.04 µM (inactive) | 8.85 µM (inactive) | 9.98 µM | 5.79 µM (inactive) | 9.38 µM (inactive) | 7.48 µM (inactive) | – | 12.7 µM (inactive) | 9.79 µM (inactive) | 11.7 µM (inactive) | 7.53 µM (inactive) | 9.53 µM (inactive) | 10.4 µM (inactive) | 0.162 µM (active) | 10.1 µM (inactive) | 1.21 µM (inactive) | 10.8 µM (inactive)
6 | COC(=O)OC[C@H]1O[C@@H](n2cc(C)c(=O)[nH]c2=O)CC1OC(=O)OC (stereo partly drawn) | > 100 µM (inactive) | > 100 µM (inactive) | – | > 100 µM (inactive) | > 100 µM (inactive) | > 100 µM | – | > 100 µM (inactive) | > 100 µM (inactive) | > 100 µM (inactive) | > 100 µM (inactive) | > 100 µM (inactive) | > 100 µM (inactive) | > 100 µM (inactive) | > 100 µM (inactive) | > 100 µM (inactive) | > 100 µM (inactive) | > 100 µM (inactive) | 95.3 µM (inactive) | > 100 µM (inactive)
7 | Oc1c2cc(Cl)cc1COCc1cc(Cl)cc(c1O)COCc1cc(Cl)cc(c1O)COC2 | 9.42 µM (inactive) | 31.3 µM (inactive) | – | 28.2 µM (inactive) | > 100 µM (inactive) | 36 µM | 6.9 µM (inactive) | 67.5 µM (inactive) | 74.3 µM (inactive) | – | 38.8 µM (inactive) | 47.2 µM (inactive) | 40.3 µM (inactive) | > 100 µM (inactive) | – | – | 15.7 µM (inactive) | 32.6 µM (inactive) | 17.8 µM (inactive) | > 100 µM (inactive)
